# Publication PMC7555119, “Characterization of Novel Synthetic Polyphenols: Validation of Antioxidant and Vasculoprotective Activities” (Antioxidants, 2020)
# Where two headings read alike, the source gives them in different places.
# Tests used:
# [1] = test system: Saccharomyces cerevisiae strain BY4741; assay: In vivo antioxidant capacity in stressed yeasts (growth recovery, survivors); type: cell-based
# Protocol: Saccharomyces cerevisiae haploid strain BY4741 was used as described previously. Briefly, 20 μL of glycerol stock culture was revived in 5ml of YPD medium (1% yeast extract, 2% bacteriological peptone and 2% dextrose) at 28 °C, with shaking (210 rpm). Fifty microliters of 20-h-old culture was used to inoculate fresh 5ml YPD (control medium) or 5 mL of oxidative stress medium (YPOxD: YPOxD; 1% yeast extract, 2% bacteriological peptone, 1% dextrose and 3% H2O2). Stress (and control) was conducted during 16h at 28 °C, with shaking (220 rpm).
# Growth rate was determined from growth kinetics using the BioScreen C plate-reader system (OY Growth Curves Ab Ldt., Helsinki, Finland). Stressed yeast cultures (16 h old) were used to inoculate 200 µl of fresh media to an initial OD595 of 0.05–0.07, being distributed in 100-well honeycomb plates (Oy Growth Curves) in triplicate per each condition (each different dose of each compound). Plates were then incubated at 28 °C for 72h, with shaking (High force), taking OD measurement each 15 min in the Bioscreen C. Maximum growth rate (μmax) and biomass production (carrying capacity) were determined in R using ‘Growthcurver’ package version 0.3 [24]. Growth curves were constructed in EXCEL, represented as mean ± SEM (standard error of mean). […] In addition, to measure survival after oxidative stress and antioxidant effectiveness of each compound, yeast cells from each challenge were serially diluted in 96-well plates, and each dilution was spotted (with a 8 × 6 stainless steel replica platter from SIGMA) in triplicate to determine viable colonies after 24–48 h at 28 °C. Survivors (mean ± SEM) were compared between treatments with one-way ANOVA, Fisher’s LSD test, with alpha at 0.05 for significance.
# [2] = DPPH free radical scavenging assay (RSA)
# Protocol: For the 2,2′-diphenylpicrylhydrazyl (DPPH) assay, antioxidant compounds were dissolved in ethanol with a stock concentration of 4 mM and stirred for 24 h. DPPH (Alfa Aesar) was also dissolved in ethanol at 0.127 mM. Different compound solutions were prepared by serial dilutions of each stock solution ([…]). […] Amounts of 80 µL of each solution and 80 µL of DPPH were added in a 96-well plate. The absorbance was measured at different times (10, 20 and 30 min and 1 and 2 h) by a Multi-Detection Microplate Reader Synergy HT (λMAX = 515 nm). Radical scavenging activity (RSA, %) was calculated using Equation (1) (1) RSA(%)=ADPPH−AEXTRACT/ADPPH·100 where AEXTRACT and ADPPH correspond to the absorbance of DPPH with and without the extracts, respectively. Eight replicates were used for each compound and results were expressed as mean value ± standard deviation. The RSA half-maximal inhibitory concentration (IC50) values were calculated from the relationship curve of RSA versus concentrations by a non-linear fit using the software GraphPad Prism 7.
smiles,measurement,setting,value
"O=C(Nc1ccc(O)cc1)N(c1ccc(O)cc1)c1ccc(O)cc1 [Compound 17, N,N-bis(4-Hydroxyphenyl)-N′-(4′-hydroxyphenyl)urea]",growth rate (r) recovery of stressed yeast,"[1]; H2O2-stressed BY4741, doses 2, 20 and 40 μg",best performing antioxidant
same,carrying capacity (k) recovery of stressed yeast,"[1]; H2O2-stressed BY4741, each dose tested",able to recover the carrying capacity of yeast cells similarly as control antioxidants
same,concentration down to which RSA ability is maintained independently of time,[2]; 10 min to 2 h,0.25 mM
same,RSA capacity fold higher compared to resveratrol,"[2]; after 10 min, from IC50",3.7 fold
same,IC50,"[2]; compound needed to reach 50% RSA after 10 min, read-out: DPPH PSA IC50 10 min",17.9 µM
same,RSA percentage,"[2]; highest concentration 2 mM, 10 min",~72%
same,IC50,"[2]; read-out: DPPH PSA IC50 2 h, compound needed to reach 50% RSA after 2 h",9.6 µM
